From US20250281392A1, “TOPICAL DELIVERY OF EPINEPHRINE AND PRODRUG COMPOSITIONS” (Aquestive Therapeutics, Inc., priority 2024, published 2025)
Counter-ions that a name gives are not always drawn. One block for each molecule: values may come before it.

How the values were obtained:
[1] = system: NK cells; experiment: NK activation assay, CD25+CD69+ NK cells by flow cytometry; assay type: cell-based, human; settings: for % inactivation relative to vehicle: human NK % CD25+CD69+ cells; for suppression of activation of NK cells, Epinephrine and Dipivefrin combined for analysis: exceeding IC50 at 70, 140 and 280 nM
Experimental: IC50 is a measurement of how much of a drug is needed to inhibit a biological process by half.
Peripheral blood mononuclear cells (PBMC) were isolated over a density gradient from six donor buffy coats and CD56+NK were separated using magnetic selection. Purity of sorted NIK cells was assessed by flow cytometry using CD56 as a marker of NK cells.
Following magnetic isolation, NK cells were seeded at 5×10^5 NK cells per well in a 48 well plate alongside NK activation beads (prepared as per manufacturer's protocol) at a 1:1 bead to cell ratio, IL-2 (final concentration 500 IU/ml) and either prodrug/epinephrine at 5 different doses (see section 3.6 below for further details), cortisol/dexamethasone (positive controls) or vehicle (media only). NK cells were cultured with the NK activation beads for two days at 37° C. in the presence of 5% CO2. After two days, supernatants were collected from each condition for future TR-FRET analysis (AQV-24-001_AM-1 only, see below) and the remaining cells from each condition were assessed for expression of surface markers CD25, CD69 and for cell viability using eBioscience™ Fixable Viability Dye. Samples were then treated with eBioscience Intracellular Fixation & Permeabilization Buffer Set to allow staining of intracellular granzyme B. Marker expression was determined by flow cytometry and appropriate “Fluorescence-Minus-One controls” controls were used. Flow cytometry data was analysed using FlowJo analysis software and data was graphed using Graph Pad Prism.
The study was performed in: 3 donors Each experimental condition was tested in: singlicate. For Flow cytometry, viability was measured and cells were phenotyped for NK cell activation (CD25, CD69, granzyme B). Raw and analysed data are provided.
Each experimental condition was tested in: singlicate. For Flow cytometry, viability was measured and cells were phenotyped for NK cell activation (CD25, CD69, granzyme B). Raw and analysed data are provided. Supernatants were harvested in triplicate per condition and stored until further analysis of IFNγ content by TR-FRET. Data was analysed and graphed. Raw and analysed data are provided. […]

[2] = design: species or system Sinclair Nanopigs; settings: in vivo
Experimental: A study was conducted to evaluate the systemic pharmacokinetic characteristics of Dipivefrin Topical Gel when administered once by topical application to intact, abraded, and wounded skin of Sinclair Nanopigs™. The study design was as follows. Animals were food fasted for at least 8 hours. Animals were monitored until fully recovered. Anesthesia procedures were documented and retained in the study data. The dose formulations were administered to appropriate animals by topical application on the dorsal surface (Dose Site #1) once on Day 1. The dose site was and/or shaved and marked at least one day prior to Day 1. At least the four corners of the dose sites will be marked with indelible ink based on the appropriate dose area. At least the four corners of the tape stripping area were marked with indelible ink for Group 2 and 3 animals. The site for Group 2 and 3 animals was gently abraded via tape stripping (conducted 50 times). All animals will have a uniform topical application using a gloved hand and/or spatula to rub the entire dose amount throughout the total dose area (for 1 minute). Topical application to the dose area for Group 4 animals will include application of the dose amount over the created wounds. If an animal is observed to have test material remaining following the application time, the observation will be documented. Dose formulations will be allowed to equilibrate at ambient temperature for at least 15 minutes prior to and continuously throughout dose administration Prior to dermal (topical) application on Day 1, the dose site for Group 1 to 3 animals were wiped clean with water-moistened gauze or paper towels then wiped dry with dry gauze or paper towels. Following washing and drying, […]. On Day 1, Group 4 animals: The animal backs were prepared for wound creation by performing a surgical scrub. Two (2) wounds were created on the dorsal surface of each Group 4 animal within a 7×7 cm area using an 8 mm punch biopsy. Steps were taken to ensure the area designated for wound creation is within the total dose area (8×8 cm). […]

[3] = system: IL-1b, IL-10; settings: cited from earlier work
[4] = system: Granzyme B; settings: donors 4-6, from 100 μg/ml, versus vehicle control
Experimental: NK cells were cultured with the NK activation beads for two days at 37° C. in the presence of 5% CO2. […] Samples were then treated with eBioscience Intracellular Fixation & Permeabilization Buffer Set to allow staining of intracellular granzyme B. Marker expression was determined by flow cytometry and appropriate “Fluorescence-Minus-One controls” controls were used. Flow cytometry data was analysed using FlowJo analysis software and data was graphed using Graph Pad Prism.
CD56+ cells were isolated from three donor buffy coats by magnetic separation. […] Next, the effect of compound addition at different timepoints and doses, following either optimal or suboptimal NK activation was determined by measuring expression of the activation markers CD25, CD69 and Granzyme B on NK cells. […] Treatment was administered at 0, 6, 24 and 30 hours. The controls were 200 nM Cortisol and 500 nM Deuruxolitinib (Jak inhibitor).

[5] = Ex vivo permeation of ondansetron formulation through dermatomed porcine ear (tissue thickness / tissue type); assay type: in vitro ADME
Experimental: Referring to FIG. 2A (through 6 hour timepoint) and FIG. 2B (through 24 hour timepoint), dermatome sectioning of the porcine ear was conducted to sample membranes of varying thickness that both capture the complete epidermis and a varying thickness of the dermis. Dermatome sectioning completed at 200 μm, 300 μm, and 400 μm to provide membranes of a varying total thickness.
As porcine tissue varies with regard to stratum corneum and epidermal thickness as a function of sampling location, multiple sampling locations have been selected for comparison. Dermatome sectioning of multiple porcine tissue samples at a constant thickness. Dermatome sectioning completed at 400 μm. Tissue types evaluated included porcine ear, shoulder, rump, and belly locations
Referring to FIG. 3A (through 400 minutes) and FIG. 3B (through 1500 minutes), the average amount of ondansetron permeated (in ug) is measured as a function of time. The permeation is measured through varying intact porcine ear tissue types at constant thickness (400 um total thickness). […] Given the comparably low standard deviation and the lack of ondansetron detected in the receiver media at t=0 minutes compared to other tissue types, this tissue type has been selected for continued ex-vivo permeation method development.

[6] = Stability of topical gel formulations (assay and degradant generation at 25° C./60% RH and 40° C./75% RH); assay type: physicochemical; settings: Formulation 1, 5% w/w API; accelerated conditions 40° C./75% RH
Experimental: An exemplary formulation is provided below.
Multiple dipivefrin gel formulations were evaluated. Formulations 1-3: API loading ranging from 2.5-10% w/w. Formulation 4: Reduced ethyl alcohol (50%) of original loading. Formulation 5: Reduced diethylene glycol monoethyl ether (50%) of original loading. Formulation 6: Reduced propylene glycol (50%) of original loading.
The stability of the topical formulation was tested in two assays. Formulation 1 was evaluated with API loading of 5% w/w. Assay trends are directed downward under accelerated conditions (40° C./75% RH)
Stability trends for a claimed topical formulation (AQEP-09) was evaluated by measuring degradant generation. Formulation 1 was tested with API loading of 5% (% w/w).
The following formulations are exemplary.

[7] = In vitro permeation and flux of dipivefrin topical gel through CelluSep; assay type: in vitro ADME; settings: 5.0% dipivefrin (w/w) topical gel
Experimental: Both in vitro and ex vivo permeation was measured for the following formulation. […] Rapid release from the topical gel matrix was observed. Referring to FIG. 4A, the amount permeated (in ug) was measured as a function of time (in minutes). […] The flux (ug/cm^2*min) was measured as a function of time (minutes).

[8] = Ex vivo permeation and flux of epinephrine prodrug topical gels through porcine ear tissue; assay type: in vitro ADME
Experimental: Both in vitro and ex vivo permeation was measured for the following formulation. […]
Exemplary formulations were evaluated including Formulations 1-3, with API loading from 2.5-10% w/w.
(§1) The claimed topical compositions were tested for permeation using both porcine ear and buccal tissue.
(§2) The tested tissues were Porcine Ear vs. Buccal Tissue through 24 hours.

[9] = Ex vivo permeation and flux of dipivefrin topical gel through buccal tissue; assay type: in vitro ADME, porcine; settings: through 24 hours
Experimental: as §1, §2

[10] = male, Wistar Han, rat, in vivo
Experimental: A study was conducted to evaluate the pharmacokinetics of the claimed composition in a rat model. The purpose of this study was to enable selection of dosing regimen to be used on Passive Cutaneous Anaphylaxis (PCA) model in mammalian subjects. In this study, 15 male rats were studied to model the effects of the claimed composition on passive cutaneous anaphylaxis with a topical route of exposure. […] The Wistar Han rat was chosen as the animal model for this study as it is an appropriate model to study the effects of drug candidates on passive cutaneous anaphylaxis, based on available literature.
In this study, the pharmaceutical composition was applied on the dorsal side of both ears for groups 2-5 and only on the left ear of group 1 using a gloved finger until absorbed. The topical gel was applied as an even layer with no rubbing required.
The dark gray bar represents concentration in ng/g after 30 minutes of exposure for both 1% (low dose) and 2.5% (high dose) compositions. The light gray bar represents concentration in ng/g after 60 minutes of exposure for both 1% (low dose) and 2.5% (high dose) compositions.

[11] = Non-clinical pharmacokinetic study of 2.5% topical gel in minipigs; assay type: in vivo
Experimental: A non-clinical pharmacokinetic study was also conducted in minipigs. In this study, a 2.5% topical gel was applied at 30 mg/cm2 in 7, 10 and 12% body surface area (BSA) coverage respectively, and data was collected over 6 hours.

[12] = human, in vivo
Experimental: A two-part clinical study was conducted for alopecia areata (AA) patients. AA is an autoimmune disease leading to hair loss on the scalp, face, and in more severe cases, other body areas. The mechanisms leading to AA are multifactorial, including an autoimmune response that results in the loss of hair follicle immune privilege. The patient will be given treatment based on disease severity (>50% involvement—JAK inhibitors; <50% involvement—corticosteroids).
In Part 1, single ascending doses of a single formulation of AQST-108 were given. […] The 1.0% AQST-108 strength was down-selected to Part 2.
In Part 2, a single dose of 1 of 3 formulations of 1.0% of AQST-108 was given.

[13] = system: TNFα, IL-10; settings: cited from earlier work
[14] = tissue thickness 200 μm, donor cell empty
[15] = tissue thickness 400 μm, donor cell filled

Molecule: CNC[C@H](O)c1ccc(O)c(O)c1 [Epinephrine]
CD25+CD69+ NK cells compared to vehicle ([1]; 5 doses, 6 donors (donor 1 removed)): consistent reduction
% inactivation relative to vehicle ([1]; 500 nM): 65%
% inactivation relative to vehicle ([1]; 1000 nM): 61%
% inactivation relative to vehicle ([1]; 2500 nM): 51%
suppression of activation of NK cells, Epinephrine and Dipivefrin combined for analysis ([1]; range of concentrations): effective suppression
wounded to intact skin ratio for Cmax, epinephrine plasma ([2]; Sinclair Nanopig, pig, topical or ocular): 3.90
PK parameters in plasma, intact skin versus abraded skin [2]: no significant difference
serum concentrations of IL-10 ([3]; humans): increases serum concentrations
serum concentrations of IL-1b ([3]; septic patients following treatment): decreased serum concentrations of IL-1b

Molecule: C[C@]12CCC(=O)C=C1CC[C@@H]1[C@@H]2[C@@H](O)C[C@@]2(C)[C@H]1CC[C@]2(O)C(=O)CO [Cortisol]
% inactivation relative to vehicle ([1]; 200 nM): 39%

Molecule: dipivefrin
reduction of NK cell activation as compared to control ([1]; doses up to 5 ng/mL, comparable to 20 nM Cortisol): about 12%
reduction in CD25+CD69+ NK cells compared to vehicle control ([1]; higher doses, donors 4-6): 5-12%
reduction in CD25+CD69+ NK cells compared to vehicle control ([1]; lower doses, donors 2-3): 7-12%
Median Fluorescence Intensity (MFI) of Granzyme B [4]: decreasing to some extent

Amount Ondansetron Permeated, 6 hours [5, 14]: 21.2 (±2.5) μg
Amount Ondansetron Permeated, 24 hours [5, 14]: 542.4 (±74.3) μg
Amount Ondansetron Permeated, 6 hours [5, 15]: 5.7 (±3.9) μg
Amount Ondansetron Permeated, 24 hours [5, 15]: 43.8 (±19.4) μg
Molecule: Cc1nccn1CC1CCc2c(c3ccccc3n2C)C1=O (stereo not drawn) [Ondansetron]

degradant formation trends (epinephrine, PD-15, RRT 1.80) [6]: directed upward
Molecule: CNCC(O)c1ccc(OC(=O)C(C)C)c(OC(=O)C(C)C)c1 (stereo not drawn) [AQEP-09, Dibutepinephrine]

in vitro release from the topical gel matrix (permeation and flux) [7]: Rapid release
permeation through buccal tissue versus porcine ear [9]: reduced dipivefrin permeation
duration of epinephrine exposure [10]: > 1 h
duration of high exposure in dermis and epidermis ([11]; 30 mg/cm2, 7, 10 and 12% BSA): more than 6 hours
systemic exposure ([11]; high body surface area coverage): no systemic exposure
AQST-108 plasma concentrations [12]: No AQST-108 plasma concentrations
systemic epinephrine concentrations [12]: within normal physiologic range
PK parameters in plasma, intact skin versus abraded skin [2]: no significant difference
Molecule: CNC[C@H](O)c1ccc(OC(=O)C(C)(C)C)c(OC(=O)C(C)(C)C)c1 [dipivefrin]
permeation as a function of API loading ([8]; topical gel, 2.5% to 10% API loading, 24 hours): Dose proportional increases in permeation
% inactivation relative to vehicle ([1]; 500 nM): 67%
% inactivation relative to vehicle ([1]; 1000 nM): 68%
% inactivation relative to vehicle ([1]; 2500 nM): 66%
suppression of activation of NK cells, Epinephrine and Dipivefrin combined for analysis ([1]; range of concentrations): effective suppression
modulation of NK cell activity ([1]; range of concentrations, exceeding IC50 at 140 and 280 nM): effectively deactivated NK cells
serious adverse events (SAE) or topical adverse events (AE) [12]: No serious adverse events

Molecule: NC[C@H](O)c1ccc(O)c(O)c1 [norepinephrine]
IL-10 secretion [13]: inducing rapid IL-10 secretion
TNFα [13]: potently suppresses

ex vivo permeation through porcine ear tissue ([8]; topical gel containing 0.5% or 5.0% (w/w) dipivefrin HCl, 400 μm tissue): Significant permeation
Molecule: CNCC(O)c1ccc(OC(=O)C(C)(C)C)c(OC(=O)C(C)(C)C)c1 (stereo not drawn) [Dipivefrin HCl]

Molecule: C[C@@H]1C[C@H]2[C@@H]3CCC4=CC(=O)C=C[C@]4(C)[C@@]3(F)[C@@H](O)C[C@]2(C)[C@@]1(O)C(=O)CO [Dexamethasone]
% inactivation relative to vehicle ([1]; 200 nM): 22%
% inactivation relative to vehicle ([1]; 1 μM): 19%
